Assay results reported in ChEMBL document CHEMBL3596164, “Inhibitory effects of hydroxylated cinnamoyl esters on lipid absorption and accumulation” (Bioorg Med Chem, 2015).
Calls of active or inactive are those of the source. The calls are words filed in the database; no cut-off is given here.

Tested on: Mus musculus
Experiment: Reduction in plasma triglyceride level in corn oil-fed ddY mouse at 30 mg/kg, po after 2 to 6 hrs relative to control
Assay type: functional
Set-up: scale not given: the % may be the effect or the level left
Conditions: not given

| SMILES | Activity [%] |
| --- | --- |
| CCCCCCCCCCOC(=O)/C=C/c1ccc(O)c(O)c1 | 78 |
| CCCCCCCCCCOC(=O)/C=C/c1cc(O)c(O)c(O)c1 | 73 |

Tested on: Mus musculus
Experiment: Reduction in plasma triglyceride level in corn oil-fed po dosed ddY mouse after 2 to 6 hrs relative to control
Assay type: functional, organism-based
Conditions: not given

| SMILES | Activity |
| --- | --- |
| CCCCCCCCCCOC(=O)/C=C/c1ccc(O)c(O)c1 | Dose-dependent effect |
| CCCCCCCCCCOC(=O)/C=C/c1cc(O)c(O)c(O)c1 | Dose-dependent effect |

Tested on: Mus musculus
Experiment: Reduction in plasma triglyceride level in corn oil-fed ddY mouse at 150 mg/kg, po after 2 to 6 hrs relative to control
Assay type: functional
Set-up: scale not given: the % may be the effect or the level left
Conditions: not given

| SMILES | Activity [%] |
| --- | --- |
| CCCCCCCCCCOC(=O)/C=C/c1ccc(O)c(O)c1 | 69 |
| CCCCCCCCCCOC(=O)/C=C/c1cc(O)c(O)c(O)c1 | 57 |

Tested on: not listed separately
Experiment: (§1) Antiobesity activity in mouse 3T3L1 cells assessed as suppression of DIM-stimulated lipid accumulation at 4 uM after 7 days by Oil Red O staining method relative to control
Assay type: functional
Conditions: 3T3-L1, 168 h

| SMILES | inhibition at 4 µM [%] |
| --- | --- |
| O=C(/C=C/c1ccc(O)c(O)c1)OCCc1ccccc1 [CAFFEIC ACID PHENETHYL ESTER] | 11 |
| CC(C)=CCC/C(C)=C/COC(=O)/C=C/c1ccc(O)c(O)c1 [GERANYL CAFFEATE] | 20 |
| CCCCCCCCCCOC(=O)/C=C/c1ccc(O)c(O)c1 | 71 |
| O=C(/C=C/c1ccc(O)c(O)c1)OCCCCCCc1ccccc1 | 46 |
| CCCCCCCCCCOC(=O)/C=C/c1cc(O)c(O)c(O)c1 | 84 |

Tested on: 3T3-L1
Experiment: as §1
Assay type: functional
Conditions: not given

| SMILES | inhibition |
| --- | --- |
| CCCCCCCCCCOC(=O)/C=C/c1cccc(O)c1 | inactive |
| O=C(/C=C/c1ccc(O)cc1)OCCCCCCc1ccccc1 | inactive |
| CCCCCCCCCCOC(=O)/C=C/c1ccc(O)cc1 | inactive |
| O=C(/C=C/c1ccc(O)cc1)OCCc1ccccc1 | inactive |

Target: T1, Pancreatic triacylglycerol lipase (Sus scrofa) (UniProt P00591)
T1 sequence (whole entry): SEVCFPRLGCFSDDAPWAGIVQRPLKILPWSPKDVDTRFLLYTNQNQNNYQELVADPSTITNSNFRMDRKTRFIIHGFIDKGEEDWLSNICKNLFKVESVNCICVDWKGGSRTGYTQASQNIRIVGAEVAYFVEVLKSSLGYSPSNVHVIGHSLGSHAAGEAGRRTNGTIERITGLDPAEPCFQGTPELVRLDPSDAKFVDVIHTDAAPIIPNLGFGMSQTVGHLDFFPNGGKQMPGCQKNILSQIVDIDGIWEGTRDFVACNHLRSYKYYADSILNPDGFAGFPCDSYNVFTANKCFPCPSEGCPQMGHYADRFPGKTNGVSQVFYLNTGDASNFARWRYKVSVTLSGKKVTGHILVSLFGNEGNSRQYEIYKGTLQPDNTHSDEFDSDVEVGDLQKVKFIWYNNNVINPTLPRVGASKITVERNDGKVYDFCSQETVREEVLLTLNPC
Experiment: Inhibition of pig pancreatic lipase at 30 uM after 10 mins by spectrophotometry relative to control
Conditions: not given

| inhibition | SMILES |
| --- | --- |
| 62% | O=C(/C=C/c1ccc(O)c(O)c1)OCCc1ccccc1 [CAFFEIC ACID PHENETHYL ESTER] |
| 62% | CC(C)=CCC/C(C)=C/COC(=O)/C=C/c1ccc(O)c(O)c1 [GERANYL CAFFEATE] |
| 38% | CCCCCCCCCCOC(=O)/C=C/c1ccc(O)c(O)c1 |
| inactive | CCCCCCCCCCOC(=O)/C=C/c1cccc(O)c1 |
| 54% | O=C(/C=C/c1ccc(O)c(O)c1)OCCCCCCc1ccccc1 |
| inactive | O=C(/C=C/c1ccc(O)cc1)OCCCCCCc1ccccc1 |
| 92% | CCCCCCCCCCOC(=O)/C=C/c1cc(O)c(O)c(O)c1 |
| inactive | CCCCCCCCCCOC(=O)/C=C/c1ccc(O)cc1 |
| inactive | O=C(/C=C/c1ccc(O)cc1)OCCc1ccccc1 |

Tested on: not listed separately
Experiment: Cytotoxicity against mouse 3T3L1 cells at 1 to 4 uM after 7 days by MTT assay
Assay type: cell-based
Conditions: 3t3-l1, 168 h

| SMILES | Activity |
| --- | --- |
| O=C(/C=C/c1ccc(O)c(O)c1)OCCc1ccccc1 [CAFFEIC ACID PHENETHYL ESTER] | Non-toxic |
| CC(C)=CCC/C(C)=C/COC(=O)/C=C/c1ccc(O)c(O)c1 [GERANYL CAFFEATE] | Non-toxic |
| CCCCCCCCCCOC(=O)/C=C/c1ccc(O)c(O)c1 | Non-toxic |
| O=C(/C=C/c1ccc(O)c(O)c1)OCCCCCCc1ccccc1 | Non-toxic |

Tested on: not listed separately
Experiment: Antiobesity activity in mouse 3T3L1 cells assessed as suppression of DIM-stimulated lipid accumulation at 25 to 50 uM after 7 days by Oil Red O staining method relative to control
Assay type: functional, 3T3-L1
Conditions: not given

| SMILES | inhibition (INH) [%] |
| --- | --- |
| O=C(/C=C/c1ccc(O)c(O)c1)OCCc1ccccc1 [CAFFEIC ACID PHENETHYL ESTER] | 24 |

Target: T1, Pancreatic triacylglycerol lipase (Sus scrofa)
Experiment: Inhibition of pig pancreatic lipase after 10 mins by spectrophotometry relative to control
Conditions: not given

| ED50 [µM] | inhibition | SMILES |
| --- | --- | --- |
| 10 | Dose-dependent effect | O=C(/C=C/c1ccc(O)c(O)c1)OCCc1ccccc1 [CAFFEIC ACID PHENETHYL ESTER] |
| > 40 | Dose-dependent effect | CCCCCCCCCCOC(=O)/C=C/c1ccc(O)c(O)c1 |
| 22 | Dose-dependent effect | O=C(/C=C/c1ccc(O)c(O)c1)OCCCCCCc1ccccc1 |
| 0.9 | Dose-dependent effect | CCCCCCCCCCOC(=O)/C=C/c1cc(O)c(O)c(O)c1 |
